Data taken from patent publication US7084301B2 (Ranbaxy Laboratories Limited, priority 2003, dated 2006).
Like-named read-outs stand apart in the source and are kept apart here.

Columns and labels:
[1] = biological target: T1, human α1B-adrenoceptors (Homo sapiens, UniProt P35368); assay: Radioligand-receptor binding assay, human recombinant α1B-adrenoceptor, [3H]prazosin
T1 sequence (P35368 1-520): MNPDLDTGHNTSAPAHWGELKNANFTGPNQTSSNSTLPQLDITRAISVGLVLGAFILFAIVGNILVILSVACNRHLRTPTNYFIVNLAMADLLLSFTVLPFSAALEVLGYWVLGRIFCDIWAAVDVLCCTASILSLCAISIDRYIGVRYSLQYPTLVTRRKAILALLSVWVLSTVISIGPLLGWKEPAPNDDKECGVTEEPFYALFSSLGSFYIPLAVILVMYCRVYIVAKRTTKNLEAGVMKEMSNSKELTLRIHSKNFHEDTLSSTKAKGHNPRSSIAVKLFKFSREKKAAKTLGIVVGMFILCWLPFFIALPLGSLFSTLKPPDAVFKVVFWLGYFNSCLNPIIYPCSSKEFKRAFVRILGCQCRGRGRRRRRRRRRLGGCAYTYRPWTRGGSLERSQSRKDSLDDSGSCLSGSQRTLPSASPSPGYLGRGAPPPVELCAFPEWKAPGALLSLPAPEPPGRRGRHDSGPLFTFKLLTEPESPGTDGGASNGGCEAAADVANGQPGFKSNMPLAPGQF
Protocol: Chinese hamster ovary (CHO) cells which had been stably transfected with human α1A, α1B, or α1D-adrenoceptors (Keffel et al., Biochem. Biophys. Res. Commun., 2000, 272, 906–11) were cultured in an atmosphere of 5% CO2/95% air at 37° C. in F-12 HAM medium supplemented with 10% heat-inactivated fetal calf serum, 1 mM glutamine, 100 U/ml penicillin and 0.1 mg/ml streptomycin. Selection pressure was maintained by regular addition of geneticin to the culture medium.
Competitive radioligand binding to the cloned subtypes of […] was performed using [^3H]prazosin as the radioligand as described by Michel et al, Br. J. Pharmacol., 98, 883–889 (1989) with minor modifications. Experiments were performed in binding buffer consisting of 50 mM Tris, 10 mM MgCl2 and 0.5 mM EDTA at pH 7.5 in a total assay volume of 1000 μl. The protein content typically was 40–60 μg/assay. The mixtures were incubated at 25° C. for 45 minutes. Incubations were terminated by rapid vacuum filtration over GF/C filters followed by two washes of the filters each with 10 ml ice-cold incubation buffer. Non-specific binding was defined as binding in the presence of 10 μM phentolamine.
The IC50 & Kd were estimated by using the non-linear curve fitting program using G Pad Prism software. The value of inhibition constant Ki was calculated from competitive binding studies by using Cheng & Prusoff equation [Cheng & Prusoff, Biochem. Pharmacol., 22, 3099–3108 (1973)], Ki=IC50/(1+L/Kd), where L is the concentration of [^3H] prazosin used in the particular experiment. Kd of [^3H] prazosin was determined from saturation binding studies. The values were tabulated as mean±SEM of pKi values, where pKi is the −log of Ki value.

[2] = biological target: D-3 receptors (Homo sapiens, UniProt P35462); assay: Radioligand-receptor binding assay, human recombinant D3 receptors, [3H]Spiperone
Chain of D-3 receptors (P35462 whole entry): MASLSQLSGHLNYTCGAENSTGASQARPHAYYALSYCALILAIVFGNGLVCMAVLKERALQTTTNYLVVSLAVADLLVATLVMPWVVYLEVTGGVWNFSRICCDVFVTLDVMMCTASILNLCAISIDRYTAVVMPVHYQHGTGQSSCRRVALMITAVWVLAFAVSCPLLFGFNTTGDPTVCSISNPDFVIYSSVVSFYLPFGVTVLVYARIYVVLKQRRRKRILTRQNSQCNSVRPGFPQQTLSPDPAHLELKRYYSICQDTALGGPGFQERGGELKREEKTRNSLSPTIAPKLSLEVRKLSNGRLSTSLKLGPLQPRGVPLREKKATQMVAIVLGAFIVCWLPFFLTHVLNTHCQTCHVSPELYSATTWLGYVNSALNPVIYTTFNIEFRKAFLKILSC
Protocol: Receptor binding assays were performed using human recombinant D3 receptors. […] Non-specific binding was defined by 25 μM S(−)Sulpiride.

[3] = test system: anaesthetised normotensive rats; assay: Hypotensive effect in anaesthetised normotensive rats; assay type: in vivo, rat; settings: for effect on blood pressure / effect on heart rate accompanying fall in blood pressure: anaesthetised normotensive rats, cumulative 0.01-10 μg/kg; for ED20: Effective dose to produce a fall in blood pressure by 20%: urethane-anaesthetised male normotensive rats, cumulative doses via femoral vein
Protocol: Male normotensive rats were anaesthetised with urethane (1.2 g/kg, i.p.). Carotid artery and femoral vein were cannulated for recording blood pressure and administration of test compounds respectively. Trachea was cannulated to maintain the airway patency. Rats were divided into two groups of 10 rats each. Group I received compound of Formula I, and Group II received Tamsulosin. Compounds were administered cumulatively at dose level of 0.01, 0.03, 0.1, 0.3, 1 & 10 μg/kg and effects on blood pressure and heart rate were monitored. Each subsequent dose in cumulative dose range was administered after previous response had stabilized.
Blood pressure and heart rate were recorded before and after drug treatment on a Grass polygraph using a Statham pressure transducer and tachograph. Effect on blood pressure was expressed as percentage change from the basal level. ED20 was calculated by fitting the cumulative dose response data in non-linear regression analysis and the value was taken from the curve. Effect on heart rate was expressed as change in beats/min.
To compare the difference amongst the dose groups one-way ANOVA followed by Dunett ‘t’ test was applied. A p of <0.05 was considered statistically significant.

[4] = biological target: T2, rat α1A-adrenoceptor (prostate) (Rattus norvegicus, UniProt P43140); assay: In-vitro functional study, agonist-induced contractile response on isolated rat prostate; assay type: biochemical
T2 sequence (P43140 1-466): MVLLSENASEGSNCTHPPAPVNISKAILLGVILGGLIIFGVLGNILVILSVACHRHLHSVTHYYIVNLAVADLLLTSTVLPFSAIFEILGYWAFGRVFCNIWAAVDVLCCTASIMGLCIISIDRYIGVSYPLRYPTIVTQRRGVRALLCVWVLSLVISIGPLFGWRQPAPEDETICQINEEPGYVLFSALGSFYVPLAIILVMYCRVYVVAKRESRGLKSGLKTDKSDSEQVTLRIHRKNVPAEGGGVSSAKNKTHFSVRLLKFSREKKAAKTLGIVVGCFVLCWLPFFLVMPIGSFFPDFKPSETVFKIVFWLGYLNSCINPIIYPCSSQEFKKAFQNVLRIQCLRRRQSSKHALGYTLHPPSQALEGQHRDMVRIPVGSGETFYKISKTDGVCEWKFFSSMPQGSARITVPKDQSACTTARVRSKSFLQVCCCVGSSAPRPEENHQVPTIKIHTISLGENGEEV
Protocol: Aorta, prostate and spleen tissues were isolated from urethane anaesthetized (1.5 gm/kg) male wistar rats. […] A resting tension of 2 g (aorta) or 1 g (spleen and prostate) was applied to tissues. Contractile response was monitored using a force displacement transducer and recorded on chart recorders. Tissues were allowed to equilibrate for 2 hours. At the end of equilibration period, concentration response curves to norepinephrine (aorta) and phenylepinephrine (spleen and prostate) were obtained in absence and presence of tested compound (at concentrations of […]). Antagonist affinities were calculated and expressed as pKB vales in Table II.
To compare the differences in pKB at the α1-arenrenoceptor subtypes one-way ANOVA followed by Dunett ‘t’ test was applied. A p<0.05 was considered statistically significant.

SMILES	Ki ([1]; human recombinant receptors in CHO cells, mean ± SEM, read-out: pKi α1B (converted))	Ki [2]	effect on blood pressure [3]	effect on heart rate accompanying fall in blood pressure [3]	ED20: Effective dose to produce a fall in blood pressure by 20% [3]	Kb ([4]; rat prostate, phenylepinephrine-induced contraction, read-out: pKB α1A (converted))	Ki [1]	fold greater α1A versus D3 selectivity as compared to tamsulosin ([2]; Table I and IV)	fold lower affinity for D3 receptors than tamsulosin ([2]; human recombinant receptors)	Kb [4]	α1A versus α1B selectivity ([4]; functional assays, rat tissues)
CCOc1ccccc1OCCNC(C)Cc1ccc(OC)c(S(N)(=O)=O)c1 (single isomer, unassigned; (-)) [Tamsulosin, (−) isomer of 5-[2-[2-(2-ethoxyphenoxy)ethylamino]-2-methylethyl]-2-methoxybenzene sulfonamide, reference compound]	0.692 nM	0.282 nM	dose dependent fall in blood pressure	decrease in the heart rate	0.3 µg/kg	0.0309 nM	–	–	–	–	–
CCOc1ccccc1OCCN[C@H](C)Cc1ccc(O)c(S(N)(=O)=O)c1 [Formula I, R (−)-5-[2-[[2-(2-ethoxyphenoxy)ethyl]amino]propyl]-2-hydroxybenzenesulfonamide]	–	1.78 nM	dose dependent fall in blood pressure	increase in heart rate	0.52 µg/kg	–	0.324 nM	14 fold	6 fold	0.0162 nM	31 fold
